Experimental data published in BigSolDB 2.1.

CCCCCCCC[n+]1ccn(C)c1.O=[N+]([O-])[O-]
solubility (mole fraction)
Conditions | in benzene | in cyclohexane | in m-xylene | in n-heptane | in n-hexane | in n-octane | in n-pentane | in o-xylene | in p-xylene | in toluene
278.15 K | – | – | – | – | – | – | 0.000687 | – | – | –
283.15 K | – | – | – | – | – | – | 0.000816 | – | – | –
288.15 K | – | – | – | – | 0.000683 | – | 0.000955 | – | – | –
293.15 K | – | 0.000775 | – | 0.000342 | 0.00078 | 0.000355 | 0.0011 | – | – | –
298.15 K | 0.000303 | 0.000901 | 0.00526 | 0.000407 | 0.000919 | 0.000411 | 0.00127 | 0.005 | 0.00308 | 0.000371
303.15 K | 0.000357 | 0.00106 | 0.00566 | 0.000488 | 0.00113 | 0.000502 | 0.00149 | 0.00529 | 0.00331 | 0.00043
308.15 K | 0.00041 | 0.00124 | 0.00605 | 0.000586 | 0.00128 | 0.000605 | – | 0.00558 | 0.00358 | 0.0005
313.15 K | 0.00049 | 0.00146 | 0.00645 | 0.000728 | 0.00162 | 0.000733 | – | 0.00587 | 0.00383 | 0.000598
318.15 K | 0.000572 | 0.00169 | 0.00685 | 0.000856 | 0.00184 | 0.000866 | – | 0.00616 | 0.00408 | 0.000699
323.15 K | 0.000661 | 0.00191 | 0.00725 | 0.00101 | 0.00206 | 0.00101 | – | 0.00646 | 0.00431 | 0.000806
328.15 K | 0.000751 | 0.00212 | 0.00765 | 0.00119 | 0.00232 | 0.00123 | – | 0.00675 | 0.00458 | 0.000892
333.15 K | 0.00086 | 0.00244 | 0.00805 | 0.00143 | 0.00271 | 0.00145 | – | 0.00704 | 0.00483 | 0.00103
338.15 K | 0.000981 | 0.00275 | 0.00845 | 0.00166 | – | 0.00168 | – | 0.00733 | 0.00508 | 0.00117
343.15 K | 0.00111 | – | 0.00885 | 0.00193 | – | 0.00198 | – | 0.00762 | 0.00533 | 0.00133

CCCCCC[n+]1ccn(C)c1.O=[N+]([O-])[O-]
solubility (mole fraction)
Conditions | in benzene | in cyclohexane | in m-xylene | in n-heptane | in n-hexane | in n-octane | in n-pentane | in o-xylene | in p-xylene | in toluene
278.15 K | – | – | – | – | – | – | 0.000359 | – | – | –
283.15 K | – | – | – | – | – | – | 0.000397 | – | – | –
288.15 K | – | – | – | – | 0.000306 | – | 0.000442 | – | – | –
293.15 K | – | 0.000304 | – | – | 0.000362 | 0.000203 | 0.000484 | – | – | –
298.15 K | 0.000219 | 0.000357 | 0.00239 | – | 0.00042 | 0.000234 | 0.000534 | 0.00133 | 0.000795 | 0.000278
303.15 K | 0.000263 | 0.0004 | 0.00271 | – | 0.000492 | 0.000268 | 0.000578 | 0.00145 | 0.000896 | 0.000334
308.15 K | 0.000308 | 0.000446 | 0.00303 | – | 0.000575 | 0.000299 | – | 0.0016 | 0.00102 | 0.00039
313.15 K | 0.000382 | 0.000516 | 0.00337 | 0.000268 | 0.000693 | 0.000344 | – | 0.00173 | 0.00114 | 0.000482
318.15 K | 0.000454 | 0.000592 | 0.00376 | 0.000358 | 0.000794 | 0.00038 | – | 0.00187 | 0.00128 | 0.000585
323.15 K | 0.000536 | 0.000674 | 0.00413 | 0.00049 | 0.000895 | 0.000421 | – | 0.00198 | 0.00141 | 0.000686
328.15 K | 0.00061 | 0.000751 | 0.00458 | 0.000629 | 0.000995 | 0.000458 | – | 0.00213 | 0.00155 | 0.000776
333.15 K | 0.000714 | 0.000857 | 0.00505 | 0.000841 | 0.00113 | 0.000518 | – | 0.00227 | 0.00169 | 0.000904
338.15 K | 0.000832 | 0.00097 | 0.00553 | 0.00109 | – | 0.000568 | – | 0.0024 | 0.00182 | 0.00106
343.15 K | 0.000962 | – | 0.00607 | 0.00142 | – | 0.000631 | – | 0.00253 | 0.00199 | 0.00123
